From article PMC7523331, “Curcumin derivative C212 inhibits Hsp90 and eliminates both growing and quiescent leukemia cells in deep dormancy” (Cell Communication and Signaling : CCS, 2020) come the findings set out here.

This assay addresses T1, Hsp90.
T1 construct: gene HSP82; C-terminus of Hsp90 (C-Hsp90, 629–732, 15 kDa), His-tagged
Briefly: intrinsic fluorescence quenching titration with purified Hsp90 domains. In kind it is binding. The source says:
intrinsic fluorescence quenching titration with purified Hsp90 domains on Hsp90 | Dissociation constant (Kd) values of C212 with different Hsp90 domains

Turning to `O=C(/C=C/c1cccnc1)C(Cc1ccccc1Cl)C(=O)/C=C/c1cccnc1` [C212, (1E,6E)-4-(2-Chlorinebenzyl)-1,7-bis(3-pyridine)-1,6-heptadiene-3,5-dione], the dissociation constant (Kd) (as a rule, the free concentration of one partner at which half of the binding sites on the other are occupied at equilibrium, for simple one-to-one binding) came to 15.3 ± 1.2 µM.
